From patent US11478451B1, “Macrocyclic chlorine substituted indole derivatives” (Bayer Aktiengesellschaft, priority 2017, dated 2022)
Counter-ions that a name gives are not always drawn. Like-named read-outs stand apart in the source and are kept apart here.

Experiments:
SUDHL5 cells [1] = assay: Induction of cytotoxicity (CellTiter-Glo, 5 h), SUDHL5; details: SUDHL5, 5 h
SUDHL10 cells [2] = assay: Induction of caspase-3/7 activity (Caspase-Glo 3/7), SUDHL10; type: cell-based; details: EC50, median, SUDHL10, 3 h treatment
Description: (§1) Induction of Caspase-3/7 Activity Upon Treatment of Cells with Selected Compounds
(§2) The BH3-domain of MCL-1 sequesters pro-apoptotic proteins, thereby inhibiting apoptosis. In contrast, MCL-1 inhibitors are expected to antagonize this effect leading to an increase in apoptosis, which can be determined by measuring the activity of caspase-3/7.
(§3) The activity of caspase-3/7 was determined in DLBCL (Diffuse large B-cell lymphoma) cell lines (SUDHL5 and SUDHL10) upon treatment with different compounds, using the Caspase-Glo® 3/7 reagent from Promega (G8092).
(§4) Rim wells were excluded. The cells were incubated for 3 h hours in a humidified incubator at 37° C.
(§5) For the evaluation of the results, the background measured with “medium-only” was subtracted from all other values.

SUDHL5 cells [3] = assay: Induction of caspase-3/7 activity (Caspase-Glo 3/7), SUDHL5; type: cell-based; details: EC50, median, SUDHL5, 3 h treatment
Description: as §1, §2, §3, §4, §5

SUDHL5 cells [4] = assay: Antiproliferation assay (CellTiter-Glo, 72 h), SUDHL5; type: cell-based; details: IC50, median, SUDHL5, 72 h, read-out: Antiproli SUDHL5 [M] (median)
Description: (§6) Assessment of the Anti-Proliferative Effect of Compounds in Different Cell Lines
(§7) The impact of compounds on the proliferation of different cell lines was assessed using the CellTiter-Glo® Luminescent Cell Viability reagent from Promega (G7573).
(§8) In parallel, cells were plated in a reference (day 0) plate for time zero determination.
(§9) Rim wells were excluded. The cells were incubated for 72 h hours in a humidified incubator at 37° C. The day 0 plate was measured by adding 30 μL/well of CTG solution (CellTiter-Glo® Luminescent Cell Viability reagent, Promega G7573) to time zero wells in the reference plate followed by a 10 minutes incubation and luminescence reading at 0.1 ms. using the PHERAstar FS microplate reader (BMG Labtech).
(§10) After 72 h incubation, the treated plates were measured in the same way as the day 0 plate mentioned above.

SUDHL10 cells [5] = assay: Induction of cytotoxicity (CellTiter-Glo, 5 h), SUDHL10; details: SUDHL10, 5 h
Description: Therefore, cytotoxicity assays were run in parallel in SUDHL5 and SUDHL10 cells.
The different cell lines were plated in culture medium (RPMI 1640 [GIBCO #22400-089] supplemented with 10% Fetal Bovine Serum) at a density of 3,300 cells in 30 μL/well in a sterile, solid black, flat bottom, polystyrene, TC-treated 384-well microplate (Corning #3571) using Multidrop Combi Reagent Dispenser. As a control, medium without cells was also added to the plate. Cells were incubated in a humidified incubator at 37° C. overnight. […] Rim wells were excluded. The cells were incubated for 5 h hours in a humidified incubator at 37° C. After this incubation, 30 μL of CellTiter-Glo® Luminescent Cell Viability reagent (Promega, G7573) was added to each well using the Multidrop Combi Reagent Dispenser, followed by 15 min incubation on a shaker at room temperature. Finally, luminescence was read at 0.1 ms, with a gain of 3000 using the PHERAstar FS microplate reader (BMG Labtech).

AMO-1 cells = assay: Antiproliferation assay (CellTiter-Glo, 72 h), AMO-1; type: cell-based; details: IC50, median, AMO-1, 72 h, read-out: Antiproli AMO-1 [M] median
Description: as §6, §7, §8, §9, §10

[6] = Homo sapiens, SU-DHL-5, 5 h, read-out: Cytotox SUDHL5 [M] (median), IC50, median
[7] = Homo sapiens, SU-DHL10, 5 h, read-out: Cytotox SUDHL10 [M] (median), IC50, median
[8] = read-out: Cytotox SUDHL10 [M] (median), IC50, median
[9] = read-out: Cytotox SUDHL5 [M] (median), IC50, median

| EC50 (SUDHL5 cells [3]; Homo sapiens, SU-DHL-5, 3 h) | IC50 (SUDHL5 cells [4]; Homo sapiens, SU-DHL-5, 72 h) | EC50 (SUDHL10 cells [2]) | EC50 (SUDHL5 cells [3]) | SMILES | IC50 (SUDHL5 cells [1]; [6]) | IC50 (AMO-1 cells; Homo sapiens, AMO1, 72 h) | IC50 (SUDHL10 cells [5]; [8]) | IC50 (SUDHL5 cells [1]; [9]) | other results |
| --- | --- | --- | --- | --- | --- | --- | --- | --- | --- |
| 2.8 µM | 2.7e-06 M |  |  | CCc1nn(CCN2CCOCC2)c2c1-c1c(Cl)ccc3c(CCCOc4cccc5ccccc45)c(C(=O)O)n(c13)C/C=C\CN(C)C2 (racemic) [Example 42, (rac)-(11Z)-4-chloro-3-ethyl-14-methyl-1-[2-(morpholin-4-yl)ethyl]-7-{3-[(naphthalen-1-yl)oxy]-propyl}-10,13,14,15-tetrahydro-1H-pyrazolo[3′,4′:8,9][1,6]diazacycloundecino[10,11,1-hi]indole-8-carboxylic acid] | 4e-06 M |  |  |  | EC50 (SUDHL10 cells [2]; Homo sapiens, SU-DHL10, 3 h): 9.4 µM |
| 9.4 µM | 7.2e-06 M |  |  | CCc1nn(CCN2CCOCC2)c2c1-c1c(Cl)ccc3c(CCCOc4cccc5ccccc45)c(C(=O)O)n(c13)CCCCN(C)C2 (racemic) [Example 45, (rac)-4-chloro-3-ethyl-14-methyl-1-[2-(morpholin-4-yl)ethyl]-7-{3-[(naphthalen-1-yl)oxy]propyl}-10,11,12,13,14,15-hexahydro-1H-pyrazolo[3′,4′:8,9][1,6]diazacycloundecino[10,11,1-hi]indole-8-carboxylic acid] | 8.1e-06 M |  |  |  |  |
|  | 6.7e-06 M |  |  | CCc1c2c(nn1C)CCCCCCn1c(C(=O)O)c(CCCOc3cccc4ccccc34)c3ccc(Cl)c-2c31 (racemic) [Example 51, (rac)-4-chloro-3-ethyl-2-methyl-7-{3-[(naphthalen-1-yl)oxy]propyl}-10,11,12,13,14,15-hexa-hydro-2H-pyrazolo[4′,3′:4,5]azacycloundecino[3,2,1-hi]indole-8-carboxylic acid] | 8.4e-06 M |  |  |  | IC50 (SUDHL10 cells [5]; [7]): 8.6e-06 M |
| 7.3 µM | 7.5e-06 M |  |  | CCc1c2c(nn1C)CNCCCCn1c(C(=O)O)c(CCCOc3cccc4cc(F)ccc34)c3ccc(Cl)c-2c31 (racemic) [Example 130, (rac)-4-chloro-3-ethyl-7-{3-[(6-fluoronaphthalen-1-yl)oxy]propyl}-2-methyl-10,11,12,13,14,15-hexahydro-2H-pyrazolo[3′,4′:8,9][1,6]diazacycloundecino[10,11,1-hi]indole-8-carboxylic acid] | 7.1e-06 M | 6.3e-06 M |  |  |  |
|  |  | 0.12 µM | 0.13 µM | CCc1c2c(nn1C)COCC1CC1Cn1c(C(=O)O)c(CCCOc3cccc4cc(F)ccc34)c3ccc(Cl)c-2c31 (single isomer, unassigned; (-)) [Example 105, (−)-3-chloro-4-ethyl-14-{3-[(6-fluoronaphthalen-1-yl)oxy]propyl}-5-methyl-5,7,9a,10,10a,11-hexahydro-9H-cyclopropa[3,4]pyrazolo[4′,3′:9,10][1,6]oxazacycloundecino[8,7,6-hi]indole-13-carboxylic acid N-ethylethanamine salt] |  |  | 2.2e-07 M |  |  |
|  |  | 7.8 µM | 6.3 µM | CCc1c2c(nn1C)COCC1CC1Cn1c(C(=O)O)c(CCCOc3cccc4cc(F)ccc34)c3ccc(Cl)c-2c31 (single isomer, unassigned; (-)) [Example 108, (−)-3-chloro-4-ethyl-14-{3-[(6-fluoronaphthalen-1-yl)oxy]propyl}-5-methyl-5,7,9a,10,10a,11-hexahydro-9H-cyclopropa[3,4]pyrazolo[4′,3′:9,10][1,6]oxazacycloundecino[8,7,6-hi]indole-13-carboxylic acid] |  |  |  | 7e-06 M | IC50 (SUDHL5 cells [4]): 1e-05 M; IC50 (AMO-1 cells): 1.3e-06 M |
| 0.2 µM | 2e-07 M |  |  | CCc1nn(C)c2c1-c1c(Cl)ccc3c(CCCOc4cccc5cc(F)ccc45)c(C(=O)O)n(c13)CCCCN(C)C2 (single isomer, unassigned; enantiomer 1) [Example 40, 4-chloro-3-ethyl-7-{3-[(6-fluoronaphthalen-1-yl)oxy]propyl}-1,14-dimethyl-10,11,12,13,14,15-hexahydro-1H-pyrazolo[3′,4′:8,9][1,6]diazacycloundecino[10,11,1-hi]indole-8-carboxylic acid (Enantiomer 1)] |  | 3.6e-07 M |  |  |  |
| 0.67 µM |  |  |  | Cc1c2c(nn1C)COCC1CCC1Cn1c(C(=O)O)c(CCCOc3cccc4ccccc34)c3ccc(Cl)c-2c31 (single isomer, unassigned; enantiomer 1) [Example 78, 3-chloro-4,5-dimethyl-15-{3-[(naphthalen-1-yl)oxy]propyl}-5,7,9,9a,10,11,11a,12-octahydrocyclobuta[3,4]pyrazolo[4′,3′:9,10][1,6]oxazacycloundecino[8,7,6-hi]indole-14-carboxylic acid (Enantiomer 1)] | 8.2e-07 M | 3e-06 M |  |  | EC50 (SUDHL10 cells [2]; listed as 078): 3.8 µM; IC50 (SUDHL10 cells [5]; [7]): 3.1e-06 M |
| 8 µM |  |  |  | CCc1c2c(nn1C)CN(C)CCCCn1c(C(=O)O)c(CCCOc3cccc4cc(F)ccc34)c3ccc(Cl)c-2c31 (single isomer, unassigned; enantiomer 2) [Example 7, 4-chloro-3-ethyl-7-{3-[(6-fluoronaphthalen-1-yl)oxy]propyl}-2,14-dimethyl-10,11,12,13,14,15-hexahydro-2H-pyrazolo[3′,4′:8,9][1,6]diazacycloundecino[10,11,1-hi]indole-8-carboxylic acid (Enantiomer 2)] |  |  | 9.3e-06 M | 6.1e-06 M | IC50 (AMO-1 cells): 6.6e-06 M |
|  | 5.1e-06 M |  |  | CCc1c2c(nn1C)CN(CCC1CCOCC1)CCCCn1c(C(=O)O)c(CCCOc3cccc4cc(F)ccc34)c3ccc(Cl)c-2c31 (single isomer, unassigned; enantiomer 2) [Example 137, 4-chloro-3-ethyl-7-{3-[(6-fluoronaphthalen-1-yl)oxy]propyl}-2-methyl-14-[2-(oxan-4-yl)ethyl]-10,11,12,13,14,15-hexahydro-2H-pyrazolo[3′,4′:8,9][1,6]diazacycloundecino[10,11,1-hi]indole-8-carboxylic acid N-ethylethanamine (Enantiomer 2)] | 8.2e-06 M | 5e-06 M |  |  | IC50 (SUDHL10 cells [5]; [7]): 7.7e-06 M |
|  |  | 6.1 µM | 5.9 µM | CCc1c2c(nn1C)COCC(O)CCn1c(C(=O)O)c(CCCOc3cccc4cc(F)ccc34)c3ccc(Cl)c-2c31 (centres unmarked) [Example 101, 4-chloro-3-ethyl-7-{3-[(6-fluoronaphthalen-1-yl)oxy]propyl}-12-hydroxy-2-methyl-2,10,11,12,13,15-hexahydropyrazolo[4′,3′:9,10][1,6]oxazacycloundecino[8,7,6-hi]indole-8-carboxylic acid-N-ethylethanamine salt] |  |  | 7.7e-06 M | 7.3e-06 M |  |
|  |  | 7.8 µM |  | CCc1c2c(nn1C)COCC(O)CCn1c(C(=O)O)c(CCCOc3cccc4cc(F)ccc34)c3ccc(Cl)c-2c31 (centres unmarked) [Example 102, 4-chloro-3-ethyl-7-{3-[(6-fluoronaphthalen-1-yl)oxy]propyl}-12-hydroxy-2-methyl-2,10,11,12,13,15-hexahydropyrazolo[4′,3′:9,10][1,6]oxazacycloundecino[8,7,6-hi]indole-8-carboxylic acid-N-ethylethanamine salt] |  |  | 8.2e-06 M | 8.4e-06 M |  |
|  |  | 6.3 µM | 4.3 µM | CCc1c2c(nn1C)CN(C)CCCn1c(C(=O)O)c(CCCOc3cccc4cc(F)ccc34)c3ccc(Cl)c-2c31 [Example 114, (−)-2-chloro-11-ethyl-1-{3-[(6-fluoronaphthalen-1-yl)oxy]propyl}-7,10-dimethyl-4,5,6,7,8,10-hexahydropyrazolo[3′,4′:7,8][1,5]diazecino[9,10,1-hi]indole-2-carboxylic acid salt] |  |  | 5.9e-06 M | 5.7e-06 M | IC50 (AMO-1 cells): 4.4e-06 M |
